Patent US12077503B2, “Substituted cyclic amides and their use as herbicides” (FMC CORPORATION, priority 2015, dated 2024)
Like-named read-outs stand apart in the source and are kept apart here.

Columns and labels:
Format in all cases: in vivo
[1] = system: pigweed (Amaranthus retroflexus); assay: Test A preemergence; conditions: Amaranthus retroflexus, pre-emergence, 240 h; for pest or weed control at 125 g/ha: 125 g ai/ha, Preemergence, visual injury rating after approximately 10 d, read-out: Pigweed plant response rating (0 to 100 scale, 0 is no effect, 100 is complete control); for pest or weed control at 500 g/ha: 500 g ai/ha, preemergence, visual injury rating about 10 d after treatment, 0 to 100 scale (0 no effect, 100 complete control), read-out: Pigweed plant response rating
[2] = system: ragweed (common ragweed, Ambrosia elatior); assay: Test A preemergence; conditions: Ambrosia artemisiifolia, pre-emergence, 240 h; for pest or weed control at 500 g/ha: 500 g ai/ha, preemergence, visual injury rating about 10 d after treatment, 0 to 100 scale (0 no effect, 100 complete control), read-out: Ragweed plant response rating
Outline: (§1)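 Ratings of 0 (no effect) to 100 (complete control) come from visual comparison with untreated controls roughly 10 d after treatment. Test chemicals, formulated in a non-phytotoxic solvent mixture with surfactant, were applied either as a preemergence directed soil spray on seeded soil or postemergence to one- to two-leaf plants 2 to 10 cm tall.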

[3] = system: giant foxtail (Setaria faberii); assay: Test A preemergence; conditions: Setaria faberi, pre-emergence, 240 h; for pest or weed control at 125 g/ha: 125 g ai/ha, Preemergence, visual injury rating after approximately 10 d, read-out: Foxtail, Giant plant response rating (0 to 100 scale, 0 is no effect, 100 is complete control); for pest or weed control at 500 g/ha: 500 g ai/ha, preemergence, visual injury rating about 10 d after treatment, 0 to 100 scale (0 no effect, 100 complete control), read-out: Foxtail, Giant plant response rating
Outline: as §1

[4] = system: ryegrass, Italian (Italian ryegrass, Lolium multiflorum); assay: Test A preemergence; conditions: Lolium multiflorum, pre-emergence, 240 h; for pest or weed control at 125 g/ha: 125 g ai/ha, Preemergence, visual injury rating after approximately 10 d, read-out: Ryegrass, Italian plant response rating (0 to 100 scale, 0 is no effect, 100 is complete control); for pest or weed control at 500 g/ha: 500 g ai/ha, preemergence, visual injury rating about 10 d after treatment, 0 to 100 scale (0 no effect, 100 complete control), read-out: Ryegrass, Italian plant response rating
Outline: as §1

[5] = system: barnyardgrass (Echinochloa crus-galli); assay: Test A preemergence; conditions: Echinochloa crus-galli, pre-emergence, 240 h; for pest or weed control at 125 g/ha: 125 g ai/ha, Preemergence, visual injury rating after approximately 10 d, read-out: Barnyardgrass plant response rating (0 to 100 scale, 0 is no effect, 100 is complete control); for pest or weed control at 500 g/ha: 500 g ai/ha, preemergence, visual injury rating about 10 d after treatment, 0 to 100 scale (0 no effect, 100 complete control), read-out: Barnyardgrass plant response rating
Outline: as §1

[6] = system: Kochia (Kochia scoparia); assay: Test A preemergence; conditions: Bassia scoparia, pre-emergence, 240 h; for pest or weed control at 125 g/ha: 125 g ai/ha, Preemergence, visual injury rating after approximately 10 d, read-out: Kochia plant response rating (0 to 100 scale, 0 is no effect, 100 is complete control); for pest or weed control at 500 g/ha: 500 g ai/ha, preemergence, visual injury rating about 10 d after treatment, 0 to 100 scale (0 no effect, 100 complete control), read-out: Kochia plant response rating
Outline: as §1

[7] = system: ducksalad (Heteranthera limosa); assay: Test B flooded paddy test; conditions: Heteranthera limosa, Flood, 250 g ai/ha; scale of 0 to 100 where 0 is no effect and 100 is complete control; read-out: Ducksalad plant response rating
Outline: (§2)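 Rating scale 0–100 (visual, vs untreated controls) after a 13–15 d greenhouse period; application to the flood layer, 3 cm above soil and maintained; plants at 2-leaf stage when treated.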

[8] = system: sedge, umbrella (small-flower umbrella sedge, Cyperus difformis); assay: Test B flooded paddy test; conditions: Cyperus difformis, Flood, 250 g ai/ha, read-out: Sedge, Umbrella plant response rating
Outline: as §2

[9] = system: rice (Oryra sativa); assay: Test B flooded paddy test; conditions: Oryza sativa, Flood, 250 g ai/ha; scale of 0 to 100 where 0 is no effect and 100 is complete control; read-out: Rice plant response rating
Outline: as §2

[10] = system: barnyardgrass (Echinochloa crus-galli); assay: Test B flooded paddy test; conditions: Echinochloa crus-galli, Flood, 250 g ai/ha; scale of 0 to 100 where 0 is no effect and 100 is complete control; read-out: Barnyardgrass plant response rating
Outline: as §2

[11] = system: pigweed (Amaranthus retroflexus); assay: Test A postemergence; conditions: Amaranthus retroflexus, post-emergence, 240 h, 125 g ai/ha, Postemergence; visual injury after approximately 10 d; 0 to 100 scale where 0 is no effect and 100 is complete control; read-out: Plant response rating, Pigweed
Outline: as §1

[12] = system: ragweed (common ragweed, Ambrosia elatior); assay: Test A postemergence; conditions: Ambrosia artemisiifolia, post-emergence, 240 h, 125 g ai/ha, Postemergence; visual injury after approximately 10 d; 0 to 100 scale where 0 is no effect and 100 is complete control; read-out: Plant response rating, Ragweed
Outline: as §1

[13] = system: giant foxtail (Setaria faberii); assay: Test A postemergence; conditions: Setaria faberi, post-emergence, 240 h, 125 g ai/ha, Postemergence; visual injury after approximately 10 d; 0 to 100 scale where 0 is no effect and 100 is complete control; read-out: Plant response rating, Foxtail, Giant
Outline: as §1

[14] = system: ryegrass, Italian (Italian ryegrass, Lolium multiflorum); assay: Test A postemergence; conditions: Lolium multiflorum, post-emergence, 240 h, 125 g ai/ha, Postemergence; visual injury after approximately 10 d; 0 to 100 scale where 0 is no effect and 100 is complete control; read-out: Plant response rating, Ryegrass, Italian
Outline: as §1

[15] = system: corn (Zea mays); assay: Test A postemergence; conditions: Zea mays, post-emergence, 240 h, 125 g ai/ha, Postemergence; visual injury after approximately 10 d; 0 to 100 scale where 0 is no effect and 100 is complete control
Outline: as §1

[16] = system: blackgrass (Alopecurus myosuroides); assay: Test A postemergence; conditions: Alopecurus myosuroides, post-emergence, 240 h, 125 g ai/ha, Postemergence; visual injury after approximately 10 d; 0 to 100 scale where 0 is no effect and 100 is complete control; read-out: Plant response rating, Blackgrass
Outline: as §1

[17] = system: Kochia (Kochia scoparia); assay: Test A postemergence; conditions: Bassia scoparia, post-emergence, 240 h, 125 g ai/ha, Postemergence; visual injury after approximately 10 d; 0 to 100 scale where 0 is no effect and 100 is complete control; read-out: Plant response rating, Kochia
Outline: as §1

[18] = system: wheat (Triticum aestivum); assay: Test A postemergence; conditions: Triticum aestivum, post-emergence, 240 h, 125 g ai/ha, Postemergence; visual injury after approximately 10 d; 0 to 100 scale where 0 is no effect and 100 is complete control; read-out: Plant response rating, Wheat
Outline: as §1

[19] = system: Galium (catchweed bedstraw, Galium aparine); assay: Test A postemergence; conditions: Galium, post-emergence, 240 h, 125 g ai/ha, Postemergence; visual injury after approximately 10 d; 0 to 100 scale where 0 is no effect and 100 is complete control; read-out: Plant response rating, Galium
Outline: as §1

[20] = system: barnyardgrass (Echinochloa crus-galli); assay: Test A postemergence; conditions: Echinochloa crus-galli, post-emergence, 240 h, 125 g ai/ha, Postemergence; visual injury after approximately 10 d; 0 to 100 scale where 0 is no effect and 100 is complete control; read-out: Plant response rating, Barnyardgrass
Outline: as §1

Cc1ccc([C@H]2CN(C)C(=O)[C@@H]2C(=O)Nc2cccc(F)c2C)cc1F [Compound 982]
pest or weed control at 125 g/ha [1]: 0% | pest or weed control at 500 g/ha [1]: 50% | pest or weed control at 500 g/ha [2]: 80% | pest or weed control at 125 g/ha [3]: 90% | pest or weed control at 500 g/ha [3]: 100% | pest or weed control at 125 g/ha [4]: 90% | pest or weed control at 500 g/ha [4]: 90% | pest or weed control at 125 g/ha [5]: 90% | pest or weed control at 500 g/ha [5]: 90% | pest or weed control at 125 g/ha [6]: 50% | pest or weed control at 500 g/ha [6]: 90% | pest or weed control at 250 g/ha [7]: 100% | pest or weed control at 250 g/ha ([8]; scale of 0 to 100 where 0 is no effect and 100 is complete control): 0% | pest or weed control at 250 g/ha [9]: 20% | pest or weed control at 250 g/ha [10]: 75% | pest or weed control at 125 g/ha [11]: 0% | pest or weed control at 125 g/ha [12]: 20% | pest or weed control at 125 g/ha [13]: 90% | pest or weed control at 125 g/ha [14]: 60% | Corn plant response rating (crop injury, 0 = no effect, 100 = complete kill) at 125 g/ha [15]: 60% | pest or weed control at 125 g/ha [16]: 70% | pest or weed control at 125 g/ha [17]: 50% | plant injury at 125 g/ha [18]: 70%

CC(=O)Oc1ccc(NC(=O)[C@H]2C(=O)N(C)C[C@@H]2c2cc(F)cc(F)c2)c(F)c1 [Compound 996]
pest or weed control at 125 g/ha [1]: 0% | pest or weed control at 500 g/ha [1]: 0% | pest or weed control at 125 g/ha ([2]; 125 g ai/ha, Preemergence, visual injury rating after approximately 10 d, read-out: Ragweed plant response rating (0 to 100 scale, 0 is no effect, 100 is complete control)): 0% | pest or weed control at 500 g/ha [2]: 0% | pest or weed control at 125 g/ha [3]: 0% | pest or weed control at 500 g/ha [3]: 0% | pest or weed control at 125 g/ha [4]: 0% | pest or weed control at 500 g/ha [4]: 0% | pest or weed control at 125 g/ha [5]: 0% | pest or weed control at 500 g/ha [5]: 0% | pest or weed control at 125 g/ha [6]: 0% | pest or weed control at 500 g/ha [6]: 0% | pest or weed control at 250 g/ha [7]: 70% | pest or weed control at 250 g/ha ([8]; 0 to 100 scale where 0 is no effect and 100 is complete control): 0% | pest or weed control at 250 g/ha [9]: 0% | pest or weed control at 250 g/ha [10]: 0% | pest or weed control at 125 g/ha [11]: 0% | pest or weed control at 125 g/ha [12]: 0% | pest or weed control at 125 g/ha [13]: 0% | pest or weed control at 125 g/ha [14]: 0% | Corn plant response rating (crop injury, 0 = no effect, 100 = complete kill) at 125 g/ha [15]: 0% | pest or weed control at 125 g/ha [16]: 0% | pest or weed control at 125 g/ha [19]: 0% | pest or weed control at 125 g/ha [20]: 0% | plant injury at 125 g/ha [18]: 0%
